Broadly, the inhibition is the change of the read-out against control, counted positive when it falls.

The target of this assay is T1, Recombinant human JARID1B/KDM5B (Homo sapiens, UniProt Q9UGL1).
T1 construct: purchased Active Motif 31432; host or cells: Sf9 insect cells
T1 sequence (Q9UGL1 whole entry): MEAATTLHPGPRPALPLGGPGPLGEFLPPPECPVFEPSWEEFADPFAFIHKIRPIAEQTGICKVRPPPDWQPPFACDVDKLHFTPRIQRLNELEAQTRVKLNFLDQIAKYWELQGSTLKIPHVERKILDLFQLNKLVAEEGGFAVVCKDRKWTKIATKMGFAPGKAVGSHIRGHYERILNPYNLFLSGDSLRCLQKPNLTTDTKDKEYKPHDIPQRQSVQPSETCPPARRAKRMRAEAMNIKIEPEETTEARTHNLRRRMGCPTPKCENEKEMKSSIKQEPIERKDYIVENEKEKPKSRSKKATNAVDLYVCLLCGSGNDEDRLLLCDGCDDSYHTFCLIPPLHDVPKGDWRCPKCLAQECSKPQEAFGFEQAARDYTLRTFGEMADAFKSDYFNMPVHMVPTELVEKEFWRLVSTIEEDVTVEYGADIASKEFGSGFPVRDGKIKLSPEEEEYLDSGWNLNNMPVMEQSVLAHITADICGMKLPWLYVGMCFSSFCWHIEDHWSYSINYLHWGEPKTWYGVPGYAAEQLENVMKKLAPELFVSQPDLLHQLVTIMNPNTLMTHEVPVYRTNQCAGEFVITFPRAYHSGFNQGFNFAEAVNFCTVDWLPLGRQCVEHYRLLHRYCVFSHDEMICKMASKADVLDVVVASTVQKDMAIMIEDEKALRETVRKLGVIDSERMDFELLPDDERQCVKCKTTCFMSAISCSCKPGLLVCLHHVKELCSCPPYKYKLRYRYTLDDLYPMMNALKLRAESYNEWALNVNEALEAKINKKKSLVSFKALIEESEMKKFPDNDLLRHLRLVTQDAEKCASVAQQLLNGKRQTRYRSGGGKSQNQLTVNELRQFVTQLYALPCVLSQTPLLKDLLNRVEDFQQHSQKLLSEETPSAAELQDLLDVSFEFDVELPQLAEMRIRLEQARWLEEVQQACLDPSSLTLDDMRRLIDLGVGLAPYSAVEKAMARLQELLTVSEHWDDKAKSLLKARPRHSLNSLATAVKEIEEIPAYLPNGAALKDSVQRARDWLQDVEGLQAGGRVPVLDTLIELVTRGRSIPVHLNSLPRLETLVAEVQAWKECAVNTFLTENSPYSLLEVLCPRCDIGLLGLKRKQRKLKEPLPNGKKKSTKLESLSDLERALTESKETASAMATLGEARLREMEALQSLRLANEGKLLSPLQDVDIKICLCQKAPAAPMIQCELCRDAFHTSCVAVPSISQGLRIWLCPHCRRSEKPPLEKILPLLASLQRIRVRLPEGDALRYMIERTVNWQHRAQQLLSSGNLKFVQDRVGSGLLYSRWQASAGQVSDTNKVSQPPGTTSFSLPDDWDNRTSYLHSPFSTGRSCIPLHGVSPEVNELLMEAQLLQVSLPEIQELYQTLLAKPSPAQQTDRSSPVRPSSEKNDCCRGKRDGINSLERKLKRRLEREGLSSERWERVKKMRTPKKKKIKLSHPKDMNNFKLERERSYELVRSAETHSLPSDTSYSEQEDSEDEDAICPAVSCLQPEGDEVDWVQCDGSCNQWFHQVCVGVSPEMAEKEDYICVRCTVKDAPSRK
Put plainly: LANCE Ultra TR-FRET demethylase assay with FLAG-tagged JARID1B. The assay is classed as biochemical. The conditions noted are these: 100 nM compound; 500 nM biotinylated H3K4me3 peptide substrate. An excerpt: FLAG-tagged JARID1B (also known as KDM5B) protein was screened against more than 170 compounds. For this compound screening, LANCE Ultra time-resolved fluorescence resonance energy transfer (TR-FRET) assay was employed using an europoium (Eu)-labeled antibody that can specifically recognize mono- or dimethylated peptides (H3K4me2/1) and ULight-streptavidin (ULight-SA), a small molecule fluorescent dye. When irradiated at 340 nm, the energy from the Eu donor is transferred to the ULight acceptor dye which, in turn, emits light primarily at 665 nm. The ratio between the intensity of primary emission at 665 nm and that of secondary emission at 590 nm was used to quantify the level of lysine methylation. As JARID1B removes more methyl moieties from tri-methylated substrate peptides (H3K4me3), the ratio increases until the enzyme reaction is terminated. In case, therefore, the compounds disrupt the enzymatic activity completely, the ratio becomes equal to a background value.
Recombinant human JARID1B/KDM5B (accession number NP_006609) of molecular weight 179.9 KDa was expressed in Sf9 insect cells and contains an N-terminal FLAG tag. The enzyme was obtained from Active Motif (Catalog No. 31432). The tri-methylated histone substrate peptide of purity greater than 95% was a synthetic peptide in which the first 21 amino acids correspond to the human histone H3 sequence with three extra amino acids and a biotin motif (GGK-biotin) linked to the C-terminus [sequence: ART-K (Me3)-QTARKSTGGKAPRKQLA-GGK-biotin-OH], (AnaSpec, Fremont, Calif. Catalog. No. ANA-1413). The reference inhibitory compound tranylcypromine (or trans-2-phenylcyclopropylamine hydrochloride, also known as, 2-PCPA) was purchased from Sigma (St. Louis, Mo. Cat. no. P8511). ULight-labeled streptavidin (ULight-SA, Catalog no. TRF0102), Eu-W1024-labeled anti-methyl-Histone H3 Lysine 4 (H3K4me1-2) Antibody (Catalog no. TRF0402), and LANCE detection buffer 10× (Catalog no. CR97-100) were obtained from PerkinElmer (Montreal, Quebec, Canada). The TR-FRET experiments were carried out in white, low-volume 384-wellplates purchased from PerkinElmer (ProxiPlate-384 Plus, Catalog no. 6008280).
The TR-FRET signal was measured in the presence both of the bio-H3K4me3 peptide and FLAG-JARID1B by detecting any H3K4me2/1 peptide produced in the assay system. Assays using only the bio-H3K4me2 peptide were served as a positive control. Robust enzymatic progressions were observed by using JARID1B at concentrations ranging from 10 to 30 nM. In a typical TR-FRET experiment, JARID1B was pre-incubated with or without 20 uM, 1 uM, or 0.1 uM of test-compounds (containing 1% DMSO final) for […]. The enzymatic reactions were initiated by the addition of 500 nM biotinylated H3K4me3 peptide substrate plus 500 uM of 2-OG, 25 uM Fe(II) and 2 mM ascorbate. The reaction buffer also contained 50 mM Hepes (pH7.5), 0.01% (v/v) Tween 20, and 50 mM NaCl. The reaction mixture was incubated for […] at room temperature before reading on an EnVision plate reader (PerkinElmer, Waltham, Mass.).
On the technique in general: Time-resolved FRET reads energy transfer from a long-lived donor to a nearby acceptor.
Consider `O=c1[nH]c(COc2ccc(C3CCCC3)cc2)nc2c(CNCC3CCNCC3)nccc12` [Example 140, 2-((4-cyclopentylphenoxy)methyl)-8-(((piperidin-4-ylmethyl)amino)methyl)pyrido[3,4-d]pyrimidin-4(3H)-one], for which the inhibition at 0.1 µM was 20 to 50%.
With `CC(c1ccccc1)c1ccc(OCc2nc3c(CNCC4CCNCC4)nccc3c(=O)[nH]2)cc1` (stereo not shown) [Example 141, 2-((4-(1-phenylethyl)phenoxy)methyl)-8-(((piperidin-4-ylmethyl)amino)methyl)pyrido[3,4-d]pyrimidin-4(3H)-one] the figure was 20 to 50%; with `CCN1CCC(CNCc2nccc3c(=O)[nH]c(COc4ccc(Cc5ccccc5)cc4)nc23)C1` (stereo not shown) [Example 142, 2-((4-benzylphenoxy)methyl)-8-((((1-ethylpyrrolidin-3-yl)methyl)amino)methyl)pyrido[3,4-d]pyrimidin-4(3H)-one], above 50%.
With `O=c1[nH]c(COc2ccc(Cc3ccccc3)cc2)nc2c(CNCCCCN3CCCC3)nccc12` [Example 143, 2-((4-benzylphenoxy)methyl)-8-(((4-(pyrrolidin-1-yl)butyl)amino)methyl)pyrido[3,4-d]pyrimidin-4(3H)-one], the inhibition at 0.1 µM was in the range of 20 to 50%.
For `CCN1CCC[C@@H]1CNCc1nccc2c(=O)[nH]c(COc3ccc(Cc4ccccc4)cc3)nc12` [Example 145, (R)-2-((4-benzylphenoxy)methyl)-8-((((1-ethylpyrrolidin-2-yl)methyl)amino)methyl)pyrido[3,4-d]pyrimidin-4(3H)-one] the value was 20 to 50%.
In the case of `CCN1CCC[C@H]1CNCc1nccc2c(=O)[nH]c(COc3ccc(Cc4ccccc4)cc3)nc12` [Example 146, (S)-2-((4-benzylphenoxy)methyl)-8-((((1-ethylpyrrolidin-2-yl)methyl)amino)methyl)pyrido[3,4-d]pyrimidin-4(3H)-one], the inhibition at 0.1 µM fell in the range of 20 to 50%.
Regarding `O=c1[nH]c(COc2ccc(Cc3ccccc3)cc2)nc2c(CNCC3CNC3)nccc12` [Example 147, 8-(((azetidin-3-ylmethyl)amino)methyl)-2-((4-benzylphenoxy)methyl)pyrido[3,4-d]pyrimidin-4(3H)-one], the inhibition at 0.1 µM was above 50%.
For `O=c1[nH]c(COc2ccc(Cc3ccccc3)cc2)nc2c(CNC[C@H]3CCCO3)nccc12` [Example 148, (R)-2-((4-benzylphenoxy)methyl)-8-((((tetrahydrofuran-2-yl)methyl)amino)methyl)pyrido[3,4-d]pyrimidin-4(3H)-one] the value was 20 to 50%.
For `O=c1[nH]c(COc2ccc(Cc3ccccc3)cc2)nc2c(CNCC3CCOCC3)nccc12` [Example 149, 2-((4-benzylphenoxy)methyl)-8-((((tetrahydro-2H-pyran-4-yl)methyl)amino)methyl)pyrido[3,4-d]pyrimidin-4(3H)-one] the value was above 50%; for `O=c1[nH]c(COc2ccc(Cc3ccccc3)cc2)nc2c(CNC[C@H]3CCNC3)nccc12` [Example 150, (S)-2-((4-benzylphenoxy)methyl)-8-(((pyrrolidin-3-ylmethyl)amino)methyl)pyrido[3,4-d]pyrimidin-4(3H)-one], above 50%; for `O=c1[nH]c(COc2ccc(Cc3ccccc3)cc2)nc2c(CNC[C@@H]3CCNC3)nccc12` [Example 151, (R)-2-((4-benzylphenoxy)methyl)-8-(((pyrrolidin-3-ylmethyl)amino)methyl)pyrido[3,4-d]pyrimidin-4(3H)-one], 20 to 50%.
For the compound `CN1CCC(CNCc2nccc3c(=O)[nH]c(COc4ccc(Cc5ccccc5)cc4)nc23)CC1` [Example 152, 2-((4-benzylphenoxy)methyl)-8-((((1-methylpiperidin-4-yl)methyl)amino)methyl)pyrido[3,4-d]pyrimidin-4(3H)-one], the inhibition at 0.1 µM is above 50%.
Regarding `O=c1[nH]c(COc2ccc(Cc3ccccc3)cc2)nc2c(CNC[C@H]3CCCNC3)nccc12` [Example 153, (S)-2-((4-benzylphenoxy)methyl)-8-(((piperidin-3-ylmethyl)amino)methyl)pyrido[3,4-d]pyrimidin-4(3H)-one], the inhibition at 0.1 µM was above 50%.
As to `O=c1[nH]c(COc2ccc(Cc3ccccc3)cc2)nc2c(CNC[C@@H]3CCCNC3)nccc12` [Example 154, (R)-2-((4-benzylphenoxy)methyl)-8-(((piperidin-3-ylmethyl)amino)methyl)pyrido[3,4-d]pyrimidin-4(3H)-one], the inhibition at 0.1 µM was above 50%.
Turning to `N[C@H]1CC[C@H](NCc2nccc3c(=O)[nH]c(COc4ccc(Cc5ccccc5)cc4)nc23)CC1` [Example 155, 8-((((1r,4r)-4-aminocyclohexyl)amino)methyl)-2-((4-benzylphenoxy)methyl)pyrido[3,4-d]pyrimidin-4(3H)-one], the inhibition at 0.1 µM was in the range of 20 to 50%.
For `O=c1[nH]c(COc2ccc(Cc3ccccc3)cc2)nc2c(CNCCN3CCOCC3)nccc12` [Example 157, 2-((4-benzylphenoxy)methyl)-8-(((2-morpholinoethyl)amino)methyl)pyrido[3,4-d]pyrimidin-4(3H)-one] the value was 20 to 50%.
Consider `O=c1[nH]c(COc2ccc(F)c(Cl)c2)nc2c(CNC[C@H]3CCNC3)nccc12` [Example 158, (S)-2-((3-chloro-4-fluorophenoxy)methyl)-8-(((pyrrolidin-3-ylmethyl)amino)methyl)pyrido[3,4-d]pyrimidin-4(3H)-one], for which the inhibition at 0.1 µM is above 50%.
For the compound `CN1CCC(CNCc2nccc3c(=O)[nH]c(COc4ccc(F)c(Cl)c4)nc23)C1` (stereo not shown) [Example 159, 2-((3-chloro-4-fluorophenoxy)methyl)-8-((((1-methylpyrrolidin-3-yl)methyl)amino)methyl)pyrido[3,4-d]pyrimidin-4(3H)-one], the inhibition at 0.1 µM was above 50%.
On to `CN1CCC(CNCc2nccc3c(=O)[nH]c(COc4ccc(F)c(Cl)c4)nc23)CC1` [Example 160, 2-((3-chloro-4-fluorophenoxy)methyl)-8-((((1-methylpiperidin-4-yl)methyl)amino)methyl)pyrido[3,4-d]pyrimidin-4(3H)-one], for which the inhibition at 0.1 µM is above 50%.
For `O=c1[nH]c(COc2ccc(F)c(Cl)c2)nc2c(CNCC3CCOCC3)nccc12` [Example 161, 2-((3-chloro-4-fluorophenoxy)methyl)-8-((((tetrahydro-2H-pyran-4-yl)methyl)amino)methyl)pyrido[3,4-d]pyrimidin-4(3H)-one] the value was below 20%; for `O=c1[nH]c(COc2ccc(F)c(Cl)c2)nc2c(CNCC3CCCOC3)nccc12` (stereo not shown) [Example 162, 2-((3-chloro-4-fluorophenoxy)methyl)-8-((((tetrahydro-2H-pyran-3-yl)methyl)amino)methyl)pyrido[3,4-d]pyrimidin-4(3H)-one], below 20%; for `O=c1[nH]c(COc2ccc(F)c(Cl)c2)nc2c(CNCC3CCOC3)nccc12` (stereo not shown) [Example 163, 2-((3-chloro-4-fluorophenoxy)methyl)-8-((((tetrahydrofuran-3-yl)methyl)amino)methyl)pyrido[3,4-d]pyrimidin-4(3H)-one], below 20%.
As for `O=c1[nH]c(COc2ccc(F)c(Cl)c2)nc2c(CNCCN3CCOCC3)nccc12` [Example 164, 2-((3-chloro-4-fluorophenoxy)methyl)-8-(((2-morpholinoethyl)amino)methyl)pyrido[3,4-d]pyrimidin-4(3H)-one], the inhibition at 0.1 µM fell in the range of 20 to 50%.
Consider `O=c1[nH]c(COc2ccc(F)c(Cl)c2)nc2c(CNCCCn3ccnc3)nccc12` [Example 165, 8-(((3-(1H-imidazol-1-yl)propyl)amino)methyl)-2-((3-chloro-4-fluorophenoxy)methyl)pyrido[3,4-d]pyrimidin-4(3H)-one], for which the inhibition at 0.1 µM is above 50%.
For `Cc1cnc(CNCc2nccc3c(=O)[nH]c(COc4ccc(F)c(Cl)c4)nc23)cn1` [Example 166, 2-((3-chloro-4-fluorophenoxy)methyl)-8-((((5-methylpyrazin-2-yl)methyl)amino)methyl)pyrido[3,4-d]pyrimidin-4(3H)-one] the value was 20 to 50%.

For the origin of these results see patent publication US9834550B2, “Pyridopyrimidinone compounds for modulating the catalytic activity of histone lysine demethylases (KDMs)” (Dong-A Socio Holdings Co., Ltd., priority 2014, dated 2017).
